Test results from patent US20120046306A1, “Substituted Heteroaryl Spiropyrrolidine MDM2 Antagonists” (priority 2010, published 2012).

Target: interaction between p53 and MDM2 proteins (Homo sapiens, UniProt Q00987)
Experiment: HTRF assay of inhibition of p53-MDM2 interaction
Assay type: binding
Conditions: GST-MDM2 and biotinylated p53 peptide, bsa: 0.02%
Protocol: The ability of the compounds to inhibit the interaction between p53 and MDM2 proteins was measured by an HTRF (homogeneous time-resolved fluorescence) assay in which recombinant GST-tagged MDM2 binds to a peptide that resembles the MDM2-interacting region of p53. Binding of GST-MDM2 protein and p53-peptide (biotinylated on its N-terminal end) is registered by the FRET (fluorescence resonance energy transfer) between Europium (Eu)-labeled anti-GST antibody and streptavidin-conjugated Allophycocyanin (APC).
Add 20 uL streptavidin-APC and Eu-anti-GST antibody mixture (6 nM Eu-anti-GST and 60 nM streptavidin-APC working solution) in TBS buffer with 0.2% BSA, shake at room temperature for 30 minutes and read using a TRF-capable plate reader at
If not specified, the reagents were purchased from Sigma Chemical Co.

Chain of interaction between p53 and MDM2 proteins (Q00987 whole entry): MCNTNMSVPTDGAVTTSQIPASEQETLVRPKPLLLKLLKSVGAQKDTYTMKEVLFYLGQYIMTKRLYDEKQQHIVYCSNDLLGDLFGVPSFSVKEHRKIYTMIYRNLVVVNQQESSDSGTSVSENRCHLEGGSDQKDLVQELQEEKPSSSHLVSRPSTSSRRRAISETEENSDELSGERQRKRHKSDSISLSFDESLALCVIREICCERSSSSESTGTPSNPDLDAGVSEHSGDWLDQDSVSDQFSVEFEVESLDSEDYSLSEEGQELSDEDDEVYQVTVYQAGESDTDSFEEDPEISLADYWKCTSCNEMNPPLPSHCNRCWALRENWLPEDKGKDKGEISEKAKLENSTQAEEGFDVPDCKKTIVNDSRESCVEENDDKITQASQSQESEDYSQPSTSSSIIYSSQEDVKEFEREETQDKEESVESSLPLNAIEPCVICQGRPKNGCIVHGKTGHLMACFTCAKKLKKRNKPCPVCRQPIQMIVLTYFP

SMILES | IC50 [µM]
COC(=O)c1ccc(NC(=O)[C@@H]2N[C@@H](CC(C)(C)C)[C@@]3(C(=O)Nc4ncccc43)[C@H]2c2cccc(Cl)c2F)c(OC)c1 (racemic) [Example 13, methyl rac-4-((2S,3R,4S,5R)-4-(3-chloro-2-fluorophenyl)-2-neopentyl-2′-oxo-1′,2′-dihydrospiro[pyrrolidine-3,3′-pyrrolo[2,3-b]pyridine]-5-ylcarboxamido)-3-methoxybenzoate] | 0.0303
CC(C)(C)C[C@@H]1N[C@@H](C(=O)Nc2ccc(C(=O)O)cc2)[C@H](c2cccc(Cl)c2F)[C@]12C(=O)Nc1cc(Cl)ncc12 (racemic) [Example 28, rac-4-((2S,3R,4S,5R)-6′-chloro-4-(3-chloro-2-fluorophenyl)-2-neopentyl-2′-oxo-1′,2′-dihydrospiro[pyrrolidine-3,3′-pyrrolo[3,2-c]pyridine]-5-ylcarboxamido)benzoic acid] | 0.0105
COC(=O)c1ccc(NC(=O)[C@@H]2N[C@@H](CC(C)(C)C)[C@@]3(C(=O)Nc4nc(Cl)ccc43)[C@H]2c2cccc(Cl)c2F)c(OC)c1 (racemic) [Example 35, methyl rac-4-((2S,3R,4S,5R)-6′-chloro-4-(3-chloro-2-fluorophenyl)-2-neopentyl-2′-oxo-1′,2′-dihydrospiro[pyrrolidine-3,3′-pyrrolo[2,3-b]pyridine]-5-ylcarboxamido)-3-methoxybenzoate] | 0.0145
COc1cc(C(N)=O)ccc1NC(=O)[C@@H]1N[C@@H](CC(C)(C)C)[C@@]2(C(=O)Nc3cc(Cl)cnc32)[C@H]1c1cccc(Cl)c1 (racemic) [Example 63, rac-(2S,3S,4R,5R)-N-(4-carbamoyl-2-methoxyphenyl)-6′-chloro-4-(3-chlorophenyl)-2-neopentyl-2′-oxo-1′,2′-dihydrospiro[pyrrolidine-3,3′-pyrrolo[3,2-b]pyridine]-5-carboxamide] | 0.0146
COc1cc(C(N)=O)ccc1NC(=O)[C@@H]1N[C@@H](CC(C)(C)C)[C@@]2(C(=O)Nc3cc(Cl)cnc32)[C@H]1c1cccc(Br)c1F (racemic) [Example 69, rac-(2S,3S,4S,5R)-4-(3-bromo-2-fluorophenyl)-N-(4-carbamoyl-2-methoxyphenyl)-6′-chloro-2-neopentyl-2′-oxo-1′,2′-dihydrospiro[pyrrolidine-3,3′-pyrrolo[3,2b]pyridine]-5-carboxamide] | 0.0129

Other lines, results leading:

IC50 [µM] | SMILES
0.0324 | COC(=O)c1ccc(NC(=O)[C@@H]2N[C@@H](CC(C)(C)C)[C@@]3(C(=O)Nc4ccncc43)[C@H]2c2cccc(Cl)c2F)c(OC)c1 (racemic) [Example 6, methyl rac-4-((2S,3R,4S,5R)-4-(3-chloro-2-fluorophenyl)-2-neopentyl-2′-oxo-1′,2′-dihydrospiro[pyrrolidine-3,3′-pyrrolo[3,2-c]pyridine]-5-ylcarboxamido)-3-methoxybenzoate]
0.0345 | COc1cc(C(=O)O)ccc1NC(=O)[C@@H]1N[C@@H](CC(C)(C)C)[C@@]2(C(=O)Nc3ccc(Cl)nc32)[C@H]1c1cccc(Cl)c1F (racemic) [Example 47, rac-4-((2S,3S,4S,5R)-5′-chloro-4-(3-chloro-2-fluorophenyl)-2-neopentyl-2′-oxo-1′,2′-dihydrospiro[pyrrolidine-3,3′-pyrrolo[3,2-b]pyridine]-5-ylcarboxamido)-3-methoxybenzoic acid]
1.83 | COC(=O)c1ccc(NC(=O)[C@@H]2N[C@@H](CC(C)(C)C)[C@@]3(C(=O)Nc4cc(Cl)cnc43)[C@H]2c2cccc(Br)c2F)c(OC)c1 (racemic) [Example 66, methyl rac-4-{(2S,3R,4S,5R)-4-(3-bromo-2-fluorophenyl)-6′-chloro-2-neopentyl-2′-oxo-1′,2′-dihydrospiro[pyrrolidine-3,3′-pyrrolo[3,2-b]pyridine]-5-ylcarboxamido}-3-methoxybenzoate]
